Reference: ChEMBL document CHEMBL1764984 (J Med Chem, 2011)
In brackets after ≈: the same amount, converted by molar mass.

Legend:
[1] = Plasma protein binding in cynomolgus monkey by untrafiltration method; assay type: ADME, cell-free, Macaca fascicularis; conditions: read-out: PPB (converted)
[2] = Tmax in cynomolgus monkey at 5 mg/kg, po; assay type: ADME, organism-based, Macaca fascicularis; set-up: dose 5 mg/kg, route oral; conditions: in vivo
[3] = target: T1, Epithelial discoidin domain-containing receptor 1 (Homo sapiens, UniProt Q08345); test: Inhibition of DDR1
[4] = Volume of distribution at steady state in Beagle dog at 5 mg/kg, iv; assay type: ADME, organism-based, Canis lupus familiaris; set-up: dose 5 mg/kg, route intravenous; conditions: in vivo, read-out: Vdss
[5] = target: Cyclin-G-associated kinase (Homo sapiens) (UniProt O14976); test: Inhibition of GAK at 10 uM
[6] = Half life in Hanover-Wistar rat at 5 mg/kg, po; assay type: ADME, organism-based; set-up: dose 5 mg/kg, route oral; conditions: in vivo
[7] = Cmax in cynomolgus monkey at 5 mg/kg, po; assay type: ADME, organism-based, Macaca fascicularis; set-up: dose 5 mg/kg, route oral; conditions: in vivo
[8] = target: Cytochrome P450 3A4 (Homo sapiens, UniProt P08684); test: Inhibition of human CYP3A4; assay type: ADME
[9] = target: Mitogen-activated protein kinase 11 (Homo sapiens, UniProt Q15759); test: Inhibition of P38beta at 10 uM
[10] = Clearance in cynomolgus monkey at 5 mg/kg, iv; assay type: ADME, organism-based, Macaca fascicularis; set-up: dose 5 mg/kg, route intravenous; conditions: in vivo
[11] = Permeability of the compound from apical to basolateral side of human Caco2 cells at 10 uM after 21 days; assay type: ADME, cell-based; conditions: Caco-2, read-out: permeability
[12] = Tmax in Hanover-Wistar rat at 5 mg/kg, po; assay type: ADME, organism-based; set-up: dose 5 mg/kg, route oral; conditions: in vivo
[13] = target: Cyclin-G-associated kinase (Homo sapiens, UniProt O14976); test: Inhibition of GAK
[14] = target: T2, Atypical kinase COQ8A, mitochondrial (Homo sapiens, UniProt Q8NI60); conditions: 10 uM
Description: Inhibition of ADCK3 at 10 uM

[15] = target: Ribosomal protein S6 kinase alpha-4 (Homo sapiens, UniProt O75676); test: Inhibition of RSK4 at 10 uM
[16] = target: T1, Epithelial discoidin domain-containing receptor 1; test: Inhibition of DDR1 at 10 uM
[17] = target: Mitogen-activated protein kinase 10 (Homo sapiens, UniProt P53779); conditions: 10 uM
Description: Inhibition of JNK3 at 10 uM

[18] = AUC (0 to last) in Hanover-Wistar rat at 5 mg/kg, po after 24 hrs; assay type: ADME, organism-based; set-up: dose 5 mg/kg, route oral, time 0 - last; conditions: plasma
[19] = target: T2, Atypical kinase COQ8A, mitochondrial; test: Inhibition of ADCK3
Target sequence in this assay (Q8NI60 whole entry): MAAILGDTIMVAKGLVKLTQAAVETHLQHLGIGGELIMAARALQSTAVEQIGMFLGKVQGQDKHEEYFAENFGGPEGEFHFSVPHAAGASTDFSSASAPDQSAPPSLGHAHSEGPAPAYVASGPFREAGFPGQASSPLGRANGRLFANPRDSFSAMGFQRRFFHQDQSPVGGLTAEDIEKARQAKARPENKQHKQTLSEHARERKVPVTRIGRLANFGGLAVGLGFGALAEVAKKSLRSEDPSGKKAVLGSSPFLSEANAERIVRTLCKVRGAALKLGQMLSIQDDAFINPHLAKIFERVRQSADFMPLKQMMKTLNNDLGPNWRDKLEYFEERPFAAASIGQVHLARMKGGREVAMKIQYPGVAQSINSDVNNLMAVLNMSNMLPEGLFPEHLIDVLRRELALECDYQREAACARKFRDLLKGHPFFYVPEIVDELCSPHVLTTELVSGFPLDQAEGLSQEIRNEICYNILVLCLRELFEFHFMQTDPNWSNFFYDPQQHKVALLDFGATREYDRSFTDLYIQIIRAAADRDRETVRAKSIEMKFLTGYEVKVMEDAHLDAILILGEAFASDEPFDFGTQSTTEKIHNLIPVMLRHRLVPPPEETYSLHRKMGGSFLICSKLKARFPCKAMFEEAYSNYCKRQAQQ

[20] = target: Cytochrome P450 2C9 (Homo sapiens, UniProt P11712); test: Inhibition of human CYP2C9; assay type: ADME
[21] = target: Cytochrome P450 2D6 (Homo sapiens, UniProt P10635); test: Inhibition of human CYP2D6; assay type: ADME
[22] = target: Serine/threonine-protein kinase 36 (Homo sapiens, UniProt Q9NRP7); test: Inhibition of STK36
[23] = target: Cytochrome P450 2C19 (Homo sapiens, UniProt P33261); test: Inhibition of human CYP2C19; assay type: ADME
[24] = Cmax in Beagle dog at 5 mg/kg, po; assay type: ADME, organism-based, Canis lupus familiaris; set-up: dose 5 mg/kg, route oral; conditions: in vivo
[25] = target: Mitogen-activated protein kinase 9 (Homo sapiens) (UniProt P45984); test: Inhibition of JNK2 at 10 uM
[26] = system: Rattus norvegicus; test: Inhibition of TNF-alpha-induced IL-6 production in po dosed rat plasma administered 30 mins before TNFalpha challenge measured after 2 hrs by ELISA; assay type: functional, organism-based
[27] = Permeability of the compound from basolateral to apical side of human Caco2 cells at 10 uM after 21 days; assay type: ADME, cell-based; conditions: Caco-2, read-out: permeability
[28] = Volume of distribution at steady state in Hanover-Wistar rat at 5 mg/kg, iv; assay type: ADME, organism-based; set-up: dose 5 mg/kg, route intravenous; conditions: in vivo, read-out: Vdss
[29] = Aqueous solubility of the compound in phosphate buffer at pH 6.5; assay type: physicochemical
[30] = target: Casein kinase I isoform epsilon (Homo sapiens, UniProt P49674); conditions: 10 uM
Description: Inhibition of CSNK1epsilon at 10 uM

[31] = system: Rattus norvegicus; test: Analgesic activity in po dosed rat inflammatory yeast hyperalgesia model assessed as increase in tolerance to pressure; assay type: functional, organism-based
[32] = Cmax in Hanover-Wistar rat at 5 mg/kg, po; assay type: ADME, organism-based; set-up: dose 5 mg/kg, route oral; conditions: in vivo
[33] = target: T3, Ribosomal protein S6 kinase alpha-3 (Homo sapiens, UniProt P51812); test: Inhibition of RSK2 at 10 uM
[34] = Clearance in Hanover-Wistar rat at 5 mg/kg, iv; assay type: ADME, organism-based; set-up: dose 5 mg/kg, route intravenous; conditions: in vivo
[35] = target: Cytochrome P450 1A2 (Homo sapiens, UniProt P05177); test: Inhibition of human CYP1A2; assay type: ADME
[36] = Tmax in Beagle dog at 5 mg/kg, po; assay type: ADME, organism-based, Canis lupus familiaris; set-up: dose 5 mg/kg, route oral; conditions: in vivo
[37] = Oral bioavailability in Hanover-Wistar rat at 5 mg/kg; assay type: ADME, organism-based; conditions: in vivo
[38] = Half life in Beagle dog at 5 mg/kg, po; assay type: ADME, organism-based, Canis lupus familiaris; set-up: dose 5 mg/kg, route oral; conditions: in vivo
[39] = Clearance in Beagle dog at 5 mg/kg, iv; assay type: ADME, organism-based, Canis lupus familiaris; set-up: dose 5 mg/kg, route intravenous; conditions: in vivo
[40] = system: Rattus norvegicus; test: Inhibition of LPS-induced IL-6 production in po dosed rat serum administered 30 mins before LPS challenge measured after […] by ELISA; assay type: functional, organism-based
[41] = Plasma protein binding in Hanover-Wistar rat by untrafiltration method; assay type: ADME, cell-free; conditions: read-out: PPB (converted)
[42] = target: Mitogen-activated protein kinase 8 (Homo sapiens) (UniProt P45983); test: Inhibition of JNK1 at 10 uM
[43] = target: Serine/threonine-protein kinase 36 (Homo sapiens) (UniProt Q9NRP7); conditions: 10 uM
Description: Inhibition of STK36 at 10 uM

[44] = Half life in cynomolgus monkey at 5 mg/kg, po; assay type: ADME, organism-based, Macaca fascicularis; set-up: dose 5 mg/kg, route oral; conditions: in vivo
[45] = target: Serine/threonine-protein kinase NLK (Homo sapiens) (UniProt Q9UBE8); test: Inhibition of NLK at 10 uM
[46] = AUC (0 to last) in cynomolgus monkey at 5 mg/kg, po after 72 hrs; assay type: ADME, organism-based, Macaca fascicularis; set-up: dose 5 mg/kg, route oral, time 0 - last; conditions: plasma
[47] = Oral bioavailability in Beagle dog at 5 mg/kg; assay type: ADME, organism-based, Canis lupus familiaris; conditions: in vivo
[48] = target: T3, Ribosomal protein S6 kinase alpha-3; test: Inhibition of RSK2
[49] = Oral bioavailability in cynomolgus monkey at 5 mg/kg; assay type: ADME, organism-based, Macaca fascicularis; conditions: in vivo
[50] = Volume of distribution at steady state in cynomolgus monkey at 5 mg/kg, iv; assay type: ADME, organism-based, Macaca fascicularis; set-up: dose 5 mg/kg, route intravenous; conditions: in vivo, read-out: Vdss
[51] = system: Rattus norvegicus; test: Inhibition of LPS-induced TNFalpha production in rat serum at 3 mg/kg, po administered 30 mins before LPS challenge measured after […] by ELISA; assay type: functional
[52] = AUC (0 to last) in Beagle dog at 5 mg/kg, po; assay type: ADME, organism-based, Canis lupus familiaris; set-up: dose 5 mg/kg, route oral, time 0 - last; conditions: plasma
[53] = AUC (infinity) in Hanover-Wistar rat at 10 mg/kg, po; assay type: ADME, organism-based; set-up: dose 10 mg/kg, route oral, time infinity; conditions: plasma
[54] = Clearance in Beagle dog at 10 mg/kg, iv; assay type: ADME, organism-based, Canis lupus familiaris; set-up: dose 10 mg/kg, route intravenous; conditions: in vivo
[55] = Tmax in Beagle dog at 10 mg/kg, po; assay type: ADME, organism-based, Canis lupus familiaris; set-up: dose 10 mg/kg, route oral; conditions: in vivo
[56] = Volume of distribution at steady state in Beagle dog at 10 mg/kg, iv; assay type: ADME, organism-based, Canis lupus familiaris; set-up: dose 10 mg/kg, route intravenous; conditions: in vivo, read-out: Vdss
[57] = Plasma protein binding in Beagle dog by untrafiltration method; assay type: ADME, cell-free, Canis lupus familiaris; conditions: read-out: PPB (converted)
[58] = Half life in Beagle dog at 10 mg/kg, po; assay type: ADME, organism-based, Canis lupus familiaris; set-up: dose 10 mg/kg, route oral; conditions: in vivo
[59] = Oral bioavailability in Beagle dog at 10 mg/kg; assay type: ADME, organism-based, Canis lupus familiaris; conditions: in vivo
[60] = Cmax in Beagle dog at 10 mg/kg, po; assay type: ADME, organism-based, Canis lupus familiaris; set-up: dose 10 mg/kg, route oral; conditions: in vivo
[61] = AUC (infinity) in Beagle dog at 10 mg/kg, po; assay type: ADME, organism-based, Canis lupus familiaris; set-up: time infinity, dose 10 mg/kg, route oral; conditions: plasma

T3 sequence (P51812 whole entry): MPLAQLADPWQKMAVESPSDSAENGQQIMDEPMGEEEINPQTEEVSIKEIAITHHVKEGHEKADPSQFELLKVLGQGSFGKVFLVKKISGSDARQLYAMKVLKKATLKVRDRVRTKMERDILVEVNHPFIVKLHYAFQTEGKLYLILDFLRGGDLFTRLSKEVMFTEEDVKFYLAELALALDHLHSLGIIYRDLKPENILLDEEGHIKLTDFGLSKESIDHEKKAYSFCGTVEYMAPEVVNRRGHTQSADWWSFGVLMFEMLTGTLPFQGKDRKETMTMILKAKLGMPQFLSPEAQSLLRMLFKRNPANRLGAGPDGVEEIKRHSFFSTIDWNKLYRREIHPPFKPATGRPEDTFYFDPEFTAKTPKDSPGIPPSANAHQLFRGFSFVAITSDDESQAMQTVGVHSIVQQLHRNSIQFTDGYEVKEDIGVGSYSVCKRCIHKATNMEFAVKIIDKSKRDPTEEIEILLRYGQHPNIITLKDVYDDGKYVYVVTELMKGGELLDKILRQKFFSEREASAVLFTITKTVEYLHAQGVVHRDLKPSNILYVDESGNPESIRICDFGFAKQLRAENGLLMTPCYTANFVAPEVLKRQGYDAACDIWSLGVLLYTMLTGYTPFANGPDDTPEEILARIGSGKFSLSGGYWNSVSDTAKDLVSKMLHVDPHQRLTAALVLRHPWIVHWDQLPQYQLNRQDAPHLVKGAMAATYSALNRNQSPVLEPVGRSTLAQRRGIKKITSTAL
T1 sequence (Q08345 whole entry, the tested form may be a part): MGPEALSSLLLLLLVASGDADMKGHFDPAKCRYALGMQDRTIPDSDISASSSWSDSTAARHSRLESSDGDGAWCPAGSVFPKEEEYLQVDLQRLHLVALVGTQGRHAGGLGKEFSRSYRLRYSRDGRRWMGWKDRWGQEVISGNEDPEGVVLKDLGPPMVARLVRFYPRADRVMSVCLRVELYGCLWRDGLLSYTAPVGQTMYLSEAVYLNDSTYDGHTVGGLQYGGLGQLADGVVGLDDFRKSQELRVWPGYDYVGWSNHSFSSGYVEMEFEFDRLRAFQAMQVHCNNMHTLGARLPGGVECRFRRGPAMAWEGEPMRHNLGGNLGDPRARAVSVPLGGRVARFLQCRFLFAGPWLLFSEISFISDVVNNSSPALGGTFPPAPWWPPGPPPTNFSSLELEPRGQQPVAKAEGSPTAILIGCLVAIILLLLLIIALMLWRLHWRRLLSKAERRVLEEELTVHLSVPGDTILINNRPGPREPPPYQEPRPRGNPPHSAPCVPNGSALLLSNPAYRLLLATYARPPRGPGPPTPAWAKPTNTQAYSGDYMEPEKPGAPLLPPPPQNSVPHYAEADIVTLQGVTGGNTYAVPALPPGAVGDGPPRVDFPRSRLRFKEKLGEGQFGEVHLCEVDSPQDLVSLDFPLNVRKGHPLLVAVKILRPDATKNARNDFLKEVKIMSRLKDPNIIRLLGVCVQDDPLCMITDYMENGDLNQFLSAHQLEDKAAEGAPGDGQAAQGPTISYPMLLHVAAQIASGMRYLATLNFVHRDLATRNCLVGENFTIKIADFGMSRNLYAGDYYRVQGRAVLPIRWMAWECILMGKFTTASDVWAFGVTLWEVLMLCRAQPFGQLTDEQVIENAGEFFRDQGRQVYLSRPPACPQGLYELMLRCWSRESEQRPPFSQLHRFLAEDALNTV
Mitogen-activated protein kinase 9 (Homo sapiens), sequence (P45984 whole entry, looked up): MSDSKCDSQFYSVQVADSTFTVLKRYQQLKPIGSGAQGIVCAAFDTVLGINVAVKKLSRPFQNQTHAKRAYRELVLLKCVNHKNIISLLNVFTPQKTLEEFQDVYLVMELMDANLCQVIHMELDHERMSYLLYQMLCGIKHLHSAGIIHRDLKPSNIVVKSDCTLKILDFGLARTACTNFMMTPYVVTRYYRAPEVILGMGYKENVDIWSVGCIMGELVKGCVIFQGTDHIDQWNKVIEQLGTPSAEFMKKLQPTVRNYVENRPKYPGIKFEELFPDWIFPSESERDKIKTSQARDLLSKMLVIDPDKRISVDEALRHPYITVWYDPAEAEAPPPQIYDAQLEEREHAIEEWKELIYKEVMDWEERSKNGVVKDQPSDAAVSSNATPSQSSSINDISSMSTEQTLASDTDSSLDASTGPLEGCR
Serine/threonine-protein kinase 36, sequence (Q9NRP7 whole entry): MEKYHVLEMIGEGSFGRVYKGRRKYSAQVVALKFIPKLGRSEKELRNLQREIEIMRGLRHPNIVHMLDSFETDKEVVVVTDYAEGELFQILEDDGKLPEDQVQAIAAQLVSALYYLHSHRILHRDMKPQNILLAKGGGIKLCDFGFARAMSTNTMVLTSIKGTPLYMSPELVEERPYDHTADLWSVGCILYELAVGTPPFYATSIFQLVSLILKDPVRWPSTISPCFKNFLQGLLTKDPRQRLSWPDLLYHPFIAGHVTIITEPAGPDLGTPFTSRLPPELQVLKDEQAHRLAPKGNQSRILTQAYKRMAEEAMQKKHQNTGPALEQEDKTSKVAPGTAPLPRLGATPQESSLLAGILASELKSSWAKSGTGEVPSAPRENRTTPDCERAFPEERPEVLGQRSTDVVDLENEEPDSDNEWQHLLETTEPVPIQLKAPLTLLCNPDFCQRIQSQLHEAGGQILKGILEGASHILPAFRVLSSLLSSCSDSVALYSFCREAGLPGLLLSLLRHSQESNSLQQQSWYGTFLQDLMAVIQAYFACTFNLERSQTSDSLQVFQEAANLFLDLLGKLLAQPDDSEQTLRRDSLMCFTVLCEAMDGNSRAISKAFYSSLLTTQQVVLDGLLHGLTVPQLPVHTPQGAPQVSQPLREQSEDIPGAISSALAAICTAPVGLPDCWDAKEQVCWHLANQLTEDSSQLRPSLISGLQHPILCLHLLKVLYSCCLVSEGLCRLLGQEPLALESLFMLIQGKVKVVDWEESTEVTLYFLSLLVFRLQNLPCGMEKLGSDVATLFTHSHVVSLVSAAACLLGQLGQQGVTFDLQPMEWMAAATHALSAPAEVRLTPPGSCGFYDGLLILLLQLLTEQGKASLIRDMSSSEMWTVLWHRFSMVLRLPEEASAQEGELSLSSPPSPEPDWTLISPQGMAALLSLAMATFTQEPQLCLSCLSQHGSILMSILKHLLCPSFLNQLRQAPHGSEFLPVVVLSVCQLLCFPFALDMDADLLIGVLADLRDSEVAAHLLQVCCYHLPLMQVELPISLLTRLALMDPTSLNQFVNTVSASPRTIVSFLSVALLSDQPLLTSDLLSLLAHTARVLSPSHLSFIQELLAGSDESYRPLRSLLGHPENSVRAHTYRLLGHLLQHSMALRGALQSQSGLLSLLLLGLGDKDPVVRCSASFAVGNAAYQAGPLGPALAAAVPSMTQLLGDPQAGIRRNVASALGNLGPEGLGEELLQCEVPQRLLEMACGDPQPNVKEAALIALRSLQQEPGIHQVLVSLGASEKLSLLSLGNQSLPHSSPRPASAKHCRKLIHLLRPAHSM
Serine/threonine-protein kinase 36 (Homo sapiens), sequence (Q9NRP7 whole entry): as above
Mitogen-activated protein kinase 8 (Homo sapiens), sequence (P45983 whole entry): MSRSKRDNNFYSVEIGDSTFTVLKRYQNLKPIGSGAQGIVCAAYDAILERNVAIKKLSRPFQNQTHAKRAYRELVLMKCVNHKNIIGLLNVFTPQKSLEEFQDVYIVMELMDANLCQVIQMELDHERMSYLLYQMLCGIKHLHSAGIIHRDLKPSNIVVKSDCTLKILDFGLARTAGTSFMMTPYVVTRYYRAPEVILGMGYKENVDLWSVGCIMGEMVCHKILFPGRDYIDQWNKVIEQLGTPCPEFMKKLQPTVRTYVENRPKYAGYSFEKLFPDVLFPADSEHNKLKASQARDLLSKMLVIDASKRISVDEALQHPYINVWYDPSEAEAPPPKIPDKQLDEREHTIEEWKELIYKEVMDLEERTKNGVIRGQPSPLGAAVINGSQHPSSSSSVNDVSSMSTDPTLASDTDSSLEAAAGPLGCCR
Cytochrome P450 2C9, sequence (P11712 whole entry): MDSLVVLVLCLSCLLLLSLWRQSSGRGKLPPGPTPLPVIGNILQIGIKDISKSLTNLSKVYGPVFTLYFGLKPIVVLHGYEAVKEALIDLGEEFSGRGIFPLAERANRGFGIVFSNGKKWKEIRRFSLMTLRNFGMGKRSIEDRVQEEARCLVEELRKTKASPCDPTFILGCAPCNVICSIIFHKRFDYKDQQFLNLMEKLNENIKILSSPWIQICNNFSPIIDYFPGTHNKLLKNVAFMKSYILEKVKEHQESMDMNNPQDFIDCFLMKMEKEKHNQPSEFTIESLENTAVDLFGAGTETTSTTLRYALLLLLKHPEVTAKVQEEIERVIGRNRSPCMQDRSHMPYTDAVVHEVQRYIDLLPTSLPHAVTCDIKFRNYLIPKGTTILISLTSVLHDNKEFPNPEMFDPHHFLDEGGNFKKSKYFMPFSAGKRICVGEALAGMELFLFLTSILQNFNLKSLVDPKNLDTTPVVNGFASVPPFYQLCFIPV

For Cn1c(=O)c(Oc2ccc(F)cc2F)cc2cnc(NC(CCO)CCO)nc21 [PAMAPIMOD], the fraction unbound [1] was 0.146, the Tmax [2] was 1.5 h and the Kd [3] was > 1 µM. The Vd [4] was 12.7 L/kg, the inhibition [5] was > 85% and the half-life [6] was 4.04 h. For the same compound, the Cmax [7] was 1860 ng/mL, the IC50 [8] was > 29 µM and the inhibition [9] was > 85%. The clearance [10] was 10.8 mL/min/kg, the Papp A→B at 10 µM [11] was 2.74 ×10⁻⁶ cm/s and the Tmax [12] was 0.5 h. For the same compound, the Kd [13] was > 1 µM, the inhibition [14] was > 85% and the inhibition [15] was > 85%. The inhibition [16] was > 85%, the inhibition [17] was > 85% and the AUC(0-t) at 24 h [18] was 3130 ng·h/mL. For the same compound, the Kd [19] was > 1 µM, the IC50 [20] was > 29 µM and the IC50 [21] was > 29 µM. For the same compound, the Kd [22] was > 1 µM, the IC50 [23] was > 29 µM and the Cmax [24] was 1380 ng/mL. The inhibition [25] was > 85%, the EC50 [26] was 0.27 µM and the ED50 ([26]; po) was 1.1 mg/kg. For the same compound, the Papp B→A at 10 µM [27] was 22.6 ×10⁻⁶ cm/s, the Vd [28] was 3.56 L/kg and the solubility [29] was 170 µg/mL (≈ 418 µM). The inhibition [30] was > 85%, the Activity [31] was “Dose-dependent effect” and the EC50 [31] was 4.3 µM. The ED50 ([31]; po) was 20.4 mg/kg, the Cmax [32] was 1340 ng/mL and the inhibition [33] was > 85%. For the same compound, the clearance [34] was 21 mL/min/kg, the IC50 [35] was > 29 µM and the Tmax [36] was 0.67 h. It also gave a bioavailability [37] of 80.1%, a half-life [38] of 9.18 h and a clearance [39] of 12.5 mL/min/kg. It also gave an EC50 [40] of 0.05 µM, an ED50 ([40]; po) of 0.1 mg/kg and a fraction unbound [41] of 0.171. For the same compound, the inhibition [42] was > 85%, the inhibition [43] was > 85% and the half-life [44] was 13.8 h. For the same compound, the inhibition [45] was > 85%, the AUC(0-t) at 72 h [46] was 9410 ng·h/mL and the bioavailability [47] was 78.2%. The Kd [48] was 0.3 µM, the bioavailability [49] was > 100% and the Vd [50] was 20.6 L/kg. The inhibition in vivo at 3 mg/kg [51] was 77% and the AUC(0-t) [52] was 5220 ng·h/mL.

Work on Cl.Cn1c(=O)c(Oc2ccc(F)cc2F)cc2cnc(NC3CCOCC3)nc21 [R-1487 HYDROCHLORIDE] yielded an AUC(0-inf) [53] of 2350 ng·h/mL, a clearance [54] of 54.2 mL/min/kg and a Tmax [55] of 0.5 h. It also gave a Vd [56] of 4.65 L/kg, a fraction unbound [57] of 0.096 and a half-life [58] of 2.23 h. It also gave a fraction unbound [41] of 0.044, a bioavailability [59] of 10.3% and a Cmax [60] of 110 ng/mL. The AUC(0-inf) [61] was 310 ng·h/mL.
